Measurements reported in paper PMC5550493, “The Conserved Lysine-265 Allosterically Modulates Nucleotide- and Actin-binding Site Coupling in Myosin-2” (Scientific Reports, 2017).

Columns and labels:
[1] = target: T1, actomyosin (Dd myosin-2 M765-2R with F-actin) (Dictyostelium discoideum, UniProt P08799); assay: stopped-flow light scattering, ADP inhibition of ATP-induced actomyosin dissociation; type: binding; conditions: read-out: Dd myosin-2 (M765-2R construct) / WT
T1 construct: gene mhcA; M765-2R: mhcA 1-765 fused to Dd alpha-actinin repeats (codons 264-505), C-terminal Asp-Ala-Leu-(His)8 tag kept, expressed in D. discoideum AX3-Orf+; in complex with F-actin purified from rabbit skeletal muscle; with Actin, alpha skeletal muscle (Oryctolagus cuniculus)
T1 sequence (P08799 whole entry, looked up, the tested form may be a part): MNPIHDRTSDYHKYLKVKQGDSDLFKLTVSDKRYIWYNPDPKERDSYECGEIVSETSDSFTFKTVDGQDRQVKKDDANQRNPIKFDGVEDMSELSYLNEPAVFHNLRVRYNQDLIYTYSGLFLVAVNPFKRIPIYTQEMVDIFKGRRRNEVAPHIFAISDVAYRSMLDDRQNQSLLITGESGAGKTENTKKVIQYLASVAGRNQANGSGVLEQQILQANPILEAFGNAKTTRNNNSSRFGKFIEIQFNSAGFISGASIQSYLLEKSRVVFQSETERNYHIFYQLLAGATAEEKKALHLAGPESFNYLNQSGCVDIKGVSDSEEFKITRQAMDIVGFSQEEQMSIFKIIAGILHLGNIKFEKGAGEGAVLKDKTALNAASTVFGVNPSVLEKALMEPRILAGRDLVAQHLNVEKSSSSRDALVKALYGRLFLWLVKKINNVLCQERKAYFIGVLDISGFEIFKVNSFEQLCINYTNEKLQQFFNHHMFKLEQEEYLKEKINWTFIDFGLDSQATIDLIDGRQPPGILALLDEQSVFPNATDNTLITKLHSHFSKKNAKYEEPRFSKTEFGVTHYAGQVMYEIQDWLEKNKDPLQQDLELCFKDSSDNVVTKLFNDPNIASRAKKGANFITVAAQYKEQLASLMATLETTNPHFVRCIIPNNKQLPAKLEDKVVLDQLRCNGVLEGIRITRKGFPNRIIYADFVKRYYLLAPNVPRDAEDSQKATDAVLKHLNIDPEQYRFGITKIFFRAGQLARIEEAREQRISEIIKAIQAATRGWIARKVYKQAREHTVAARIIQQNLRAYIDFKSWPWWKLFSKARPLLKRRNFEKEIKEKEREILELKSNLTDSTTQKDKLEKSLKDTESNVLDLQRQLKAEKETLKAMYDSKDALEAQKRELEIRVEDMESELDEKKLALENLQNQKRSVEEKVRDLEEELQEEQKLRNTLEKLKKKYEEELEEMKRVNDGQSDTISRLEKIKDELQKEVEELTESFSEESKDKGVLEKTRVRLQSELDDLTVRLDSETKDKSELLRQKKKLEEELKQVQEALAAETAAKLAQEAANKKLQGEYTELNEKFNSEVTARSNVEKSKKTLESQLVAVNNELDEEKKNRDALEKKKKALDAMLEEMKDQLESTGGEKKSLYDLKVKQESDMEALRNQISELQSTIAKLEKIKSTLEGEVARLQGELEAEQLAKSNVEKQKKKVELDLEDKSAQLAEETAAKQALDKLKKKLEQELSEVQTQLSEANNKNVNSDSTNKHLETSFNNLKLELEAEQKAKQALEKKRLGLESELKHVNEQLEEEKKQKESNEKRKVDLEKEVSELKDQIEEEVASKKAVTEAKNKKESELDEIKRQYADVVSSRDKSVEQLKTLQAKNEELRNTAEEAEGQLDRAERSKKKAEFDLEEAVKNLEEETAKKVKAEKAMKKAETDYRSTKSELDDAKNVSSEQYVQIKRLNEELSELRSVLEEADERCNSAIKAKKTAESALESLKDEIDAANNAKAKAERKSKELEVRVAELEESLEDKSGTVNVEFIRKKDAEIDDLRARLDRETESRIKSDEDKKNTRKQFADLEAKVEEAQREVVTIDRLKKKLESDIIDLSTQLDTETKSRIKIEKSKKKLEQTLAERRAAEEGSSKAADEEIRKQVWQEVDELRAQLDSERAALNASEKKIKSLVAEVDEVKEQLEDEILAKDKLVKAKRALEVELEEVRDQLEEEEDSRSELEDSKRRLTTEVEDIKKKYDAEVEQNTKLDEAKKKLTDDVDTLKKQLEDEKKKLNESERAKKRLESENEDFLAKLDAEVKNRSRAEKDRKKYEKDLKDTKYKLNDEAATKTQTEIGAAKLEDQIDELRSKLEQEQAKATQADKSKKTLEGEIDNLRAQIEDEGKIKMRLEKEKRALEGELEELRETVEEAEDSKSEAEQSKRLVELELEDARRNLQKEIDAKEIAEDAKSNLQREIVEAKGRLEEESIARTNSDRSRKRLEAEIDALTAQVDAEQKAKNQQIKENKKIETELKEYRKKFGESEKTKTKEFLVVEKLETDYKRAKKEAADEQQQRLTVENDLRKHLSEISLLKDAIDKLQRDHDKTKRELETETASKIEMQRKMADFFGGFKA
From the text: stopped-flow light scattering, ADP inhibition of ATP-induced actomyosin dissociation on actomyosin (Dd myosin-2 M765-2R with F-actin)

[2] = target: T1, actomyosin (Dd myosin-2 M765-2R with F-actin); assay: NADH-coupled actin-activated ATPase assay; type: biochemical; conditions: 20 µM F-actin, 1 mM ATP, 5% DMSO, 25 mM HEPES pH 7.3, 25 mM KCl, 5 mM MgCl2, 25 °C; allosteric

SMILES | Kd [1] [µM] | n-fold inhibition at 100 μM PBP [2] [fold]
Nc1ncnc2c1ncn2[C@@H]1O[C@H](COP(=O)(O)OP(=O)(O)O)[C@@H](O)[C@H]1O [ADP] | 73.3 ± 7 | –
Oc1c(Br)cc(Br)cc1-c1[nH]c(Br)c(Br)c1Br [pentabromopseudilin] | – | 7
